Test results published in ChEMBL document CHEMBL1135698, “Synthesis, antitumor activity, molecular modeling, and DNA binding properties of a new series of imidazonaphthalimides” (J Med Chem, 2002).

Key:
Type in all cases: functional, cell-based
HT-29 = assay: In vitro concentration required to reduce cell number to 50% in human colon carcinoma (HT-29) culture
PC-3 = assay: In vitro concentration required to reduce cell number to 50% in human postrate carcinoma (PC-3) culture
HeLa = assay: In vitro concentration required to reduce cell number to 50% in human cervical carcinoma (HeLa) culture

Compound | IC50 (HT-29) [µM] | IC50 (PC-3) [µM] | IC50 (HeLa) [µM]
Cc1nc2cc3c4c(cccc4c2[nH]1)C(=O)N(CCCN(C)CCCN1C(=O)c2cccc4c2c(cc2nc(C)[nH]c24)C1=O)C3=O | > 100 | 36.3 | > 100
Cc1nc2cc3c4c(cccc4c2[nH]1)C(=O)N(CCN(C)CCCN(C)CCN1C(=O)c2cccc4c2c(cc2nc(C)[nH]c24)C1=O)C3=O | 0.32 | 3.22 | 0.8
Cc1nc2c(cc3c4c(cccc42)C(=O)N(CCN2CCCC2)C3=O)[nH]1 | 3.11 | 4.22 | 6.09
Cc1nc2c(cc3c4c(cccc42)C(=O)N(CCNCCNCCN2C(=O)c4cccc5c4c(cc4nc(C)[nH]c45)C2=O)C3=O)[nH]1 | 1.08 | > 100 | 3.49
Cc1nc2cc3c4c(cccc4c2[nH]1)C(=O)N(CCN(C)C)C3=O | 0.94 | 10.4 | 2.35
Cc1nc2cc3c4c(cccc4c2[nH]1)C(=O)N(CCN(C)CCN1C(=O)c2cccc4c2c(cc2nc(C)[nH]c24)C1=O)C3=O | 17.5 | > 100 | 4.45
Cc1nc2c(cc3c4c(cccc42)C(=O)N(CCNCCCNCCN2C(=O)c4cccc5c4c(cc4nc(C)[nH]c45)C2=O)C3=O)[nH]1 | 8.5 | > 100 | 8.26
Cc1nc2cc3c4c(cccc4c2[nH]1)C(=O)N(CCN(C)CCN(C)CCN1C(=O)c2cccc4c2c(cc2nc(C)[nH]c24)C1=O)C3=O | 3.83 | > 100 | 8.62
Cc1nc2c(cc3c4c(cccc42)C(=O)N(CCCNCCNCCCN2C(=O)c4cccc5c4c(cc4nc(C)[nH]c45)C2=O)C3=O)[nH]1 | 15 | 744 | 8.75
CN(C)CCN1C(=O)c2cccc3cc(N)cc(c23)C1=O [AMONAFIDE] | 4.67 | 6.38 | 2.73
O=C1c2cccc3cccc(c23)C(=O)N1CCNCCCNCCN1C(=O)c2cccc3cccc(c23)C1=O [ELINAFIDE] | 0.017 | 0.32 | 0.07
